Values of other authors as cited in paper PMC7503219 (International journal of hematology, 2019).

Tested on: GATA-1low mice
Conditions: GATA-1 mouse model of PMF

SMILES: N#CCCN [BAPN, β-aminopropionitrile]
- effect on myelofibrotic phenotype: reduced the pathogenesis of the myelofibrotic phenotype
